According to ChEMBL document CHEMBL3885861, “Open TG-GATES”:

Species: Rattus norvegicus
Assay: Open TG-GATES - Regimen: Single
Type: toxicity, organism-based, Sprague-Dawley
Parameters: regimen Single, gender Male, age 6 weeks
Conditions: in vivo, po, 1000 mg/kg, route gavage, dose level High; for APTT / Bas / Eos / Fbg / Hb / Ht / Lym / MCH / MCHC / MCV / Mono / Neu / PT / Plat / RBC / Ret / WBC: tissue Blood; for KIDNEY_L / KIDNEY_R / KIDNEY_TOTAL: tissue Kidney; for LIVER: tissue Liver; for A/G / ALP / ALT / AST / BUN / CRE / Ca / Cl / DBIL / GLC / IP / K / LDH / Na / PL / RALB / TBIL / TC / TG / TP / gamma-GTP: tissue Plasma

Molecule CC(=O)Nc1ccc2c(c1)Cc1ccccc1-2 [2-ACETYLAMINOFLUORENE] has a TERMINAL_BW (3 h) of 222.5 g, an APTT (3 h) of 20.1 s and a Bas (3 h) of 0.6%. The Eos (3 h) was 1%, the Fbg (3 h) was 233.2 mg/dL and the Hb (3 h) was 14.2 g/dL. The Ht (3 h) was 41%, the Lym (3 h) was 73% and the MCH (3 h) was 21.9 pg. For the same molecule, the MCHC (3 h) was 34.7%, the MCV (3 h) was 63.3 fL and the Mono (3 h) was 3%. For the same molecule, the Neu (3 h) was 21.6%, the PT (3 h) was 12 s and the Plat (3 h) was 122.7 x10_4/uL. The RBC (3 h) was 648.8 x10_4/ul, the Ret (3 h) was 7.5% and the WBC (3 h) was 60.1 x10_2/uL. It also gave a KIDNEY_L (3 h) of 1 g, a KIDNEY_R (3 h) of 1 g and a KIDNEY_TOTAL (3 h) of 2 g. The LIVER (3 h) was 10.4 g, the A/G (3 h) was 1.6 and the ALP (3 h) was 850.2 IU/L. The ALT (3 h) was 41.4 IU/L, the AST (3 h) was 84 IU/L and the BUN (3 h) was 12.4 mg/dL. For the same molecule, the CRE (3 h) was 0.5 mg/dL, the Ca (3 h) was 10.9 mg/dL and the Cl (3 h) was 102.4 meq/L. It also gave a DBIL (3 h) of 0.078 mg/dL, a GLC (3 h) of 218.8 mg/dL and an IP (3 h) of 10.5 mg/dL. For the same molecule, the K (3 h) was 3.8 meq/L, the LDH (3 h) was 209.6 IU/L and the Na (3 h) was 140.8 meq/L. The PL (3 h) was 151.6 mg/dL, the RALB (3 h) was 3.6 g/dL and the TBIL (3 h) was 0.1 mg/dL. The TC (3 h) was 87.4 mg/dL, the TG (3 h) was 68.8 mg/dL and the TP (3 h) was 5.9 g/dL. For the same molecule, the gamma-GTP (3 h) was 1.2 IU/L, the TERMINAL_BW (6 h) was 215.7 g and the APTT (6 h) was 19.6 s. The Bas (6 h) was 0.8%, the Eos (6 h) was 1.2% and the Fbg (6 h) was 227.2 mg/dL. It also gave a Hb (6 h) of 14.4 g/dL, a Ht (6 h) of 41.6% and a Lym (6 h) of 73.6%. It also gave an MCH (6 h) of 21.9 pg, an MCHC (6 h) of 34.6% and an MCV (6 h) of 63.4 fL. For the same molecule, the Mono (6 h) was 1.8%, the Neu (6 h) was 22.8% and the PT (6 h) was 12.9 s. For the same molecule, the Plat (6 h) was 126.1 x10_4/uL, the RBC (6 h) was 656.8 x10_4/ul and the Ret (6 h) was 7.5%. It also gave a WBC (6 h) of 35.4 x10_2/uL, a KIDNEY_L (6 h) of 0.9 g and a KIDNEY_R (6 h) of 0.9 g. The KIDNEY_TOTAL (6 h) was 1.8 g, the LIVER (6 h) was 9.7 g and the A/G (6 h) was 1.7. The ALP (6 h) was 1010.2 IU/L, the ALT (6 h) was 37.4 IU/L and the AST (6 h) was 72.6 IU/L. It also gave a BUN (6 h) of 14.4 mg/dL, a CRE (6 h) of 0.5 mg/dL and a Ca (6 h) of 10.7 mg/dL. The Cl (6 h) was 102 meq/L, the DBIL (6 h) was 0.074 mg/dL and the GLC (6 h) was 251.2 mg/dL. For the same molecule, the IP (6 h) was 9.7 mg/dL, the K (6 h) was 4 meq/L and the LDH (6 h) was 228.6 IU/L. It also gave a Na (6 h) of 140.6 meq/L, a PL (6 h) of 133.6 mg/dL and an RALB (6 h) of 3.6 g/dL. For the same molecule, the TBIL (6 h) was 0.1 mg/dL, the TC (6 h) was 83.8 mg/dL and the TG (6 h) was 26.6 mg/dL. The TP (6 h) was 5.8 g/dL, the gamma-GTP (6 h) was 1.4 IU/L and the TERMINAL_BW (9 h) was 214.2 g. For the same molecule, the APTT (9 h) was 18.7 s, the Bas (9 h) was 0.6% and the Eos (9 h) was 0.6%. It also gave a Fbg (9 h) of 252.4 mg/dL, a Hb (9 h) of 14.8 g/dL and a Ht (9 h) of 42.6%. For the same molecule, the Lym (9 h) was 68.8%, the MCH (9 h) was 22 pg and the MCHC (9 h) was 34.7%. For the same molecule, the MCV (9 h) was 63.3 fL, the Mono (9 h) was 3.6% and the Neu (9 h) was 25%. For the same molecule, the PT (9 h) was 13.1 s, the Plat (9 h) was 130.1 x10_4/uL and the RBC (9 h) was 673.2 x10_4/ul. It also gave a Ret (9 h) of 7.4%, a WBC (9 h) of 46.2 x10_2/uL and a KIDNEY_L (9 h) of 1 g. For the same molecule, the KIDNEY_R (9 h) was 0.9 g, the KIDNEY_TOTAL (9 h) was 1.9 g and the LIVER (9 h) was 10.4 g. The A/G (9 h) was 1.5, the ALP (9 h) was 751.4 IU/L and the ALT (9 h) was 33 IU/L. For the same molecule, the AST (9 h) was 64.8 IU/L, the BUN (9 h) was 13.4 mg/dL and the CRE (9 h) was 0.5 mg/dL. For the same molecule, the Ca (9 h) was 11.1 mg/dL, the Cl (9 h) was 104.6 meq/L and the DBIL (9 h) was 0.066 mg/dL. For the same molecule, the GLC (9 h) was 225.4 mg/dL, the IP (9 h) was 9.7 mg/dL and the K (9 h) was 4.2 meq/L. It also gave an LDH (9 h) of 196.8 IU/L, a Na (9 h) of 141.4 meq/L and a PL (9 h) of 160.4 mg/dL. It also gave an RALB (9 h) of 3.6 g/dL, a TBIL (9 h) of 0.1 mg/dL and a TC (9 h) of 90 mg/dL. It also gave a TG (9 h) of 34.4 mg/dL, a TP (9 h) of 6 g/dL and a gamma-GTP (9 h) of 1 IU/L. For the same molecule, the TERMINAL_BW (24 h) was 212.5 g, the APTT (24 h) was 20.3 s and the Bas (24 h) was 0.4%. It also gave an Eos (24 h) of 0.8%, a Fbg (24 h) of 209.6 mg/dL and a Hb (24 h) of 14.7 g/dL. The Ht (24 h) was 42.1%, the Lym (24 h) was 67.2% and the MCH (24 h) was 21.8 pg. For the same molecule, the MCHC (24 h) was 35%, the MCV (24 h) was 62.3 fL and the Mono (24 h) was 2.8%. It also gave a Neu (24 h) of 28%, a PT (24 h) of 15 s and a Plat (24 h) of 140.3 x10_4/uL. The RBC (24 h) was 675.8 x10_4/ul, the Ret (24 h) was 7% and the WBC (24 h) was 79.6 x10_2/uL. It also gave a KIDNEY_L (24 h) of 1 g, a KIDNEY_R (24 h) of 1 g and a KIDNEY_TOTAL (24 h) of 1.9 g. It also gave an LIVER (24 h) of 9.7 g, an A/G (24 h) of 1.6 and an ALP (24 h) of 787.8 IU/L. The ALT (24 h) was 32.4 IU/L, the AST (24 h) was 78.8 IU/L and the BUN (24 h) was 11.6 mg/dL. The CRE (24 h) was 0.6 mg/dL, the Ca (24 h) was 10 mg/dL and the Cl (24 h) was 105 meq/L. The DBIL (24 h) was 0.1 mg/dL, the GLC (24 h) was 190.6 mg/dL and the IP (24 h) was 8.7 mg/dL. For the same molecule, the K (24 h) was 4.2 meq/L, the LDH (24 h) was 252.4 IU/L and the Na (24 h) was 140.8 meq/L. The PL (24 h) was 116.8 mg/dL, the RALB (24 h) was 3.3 g/dL and the TBIL (24 h) was 0.2 mg/dL. For the same molecule, the TC (24 h) was 59.6 mg/dL, the TG (24 h) was 67.4 mg/dL and the TP (24 h) was 5.3 g/dL. The gamma-GTP (24 h) was 1.2 IU/L.
